From patent publication US20030162732A1, “Combination of aminosugars and cysteine or cysteine derivatives” (Astion Development A/S, priority 2001, published 2003)

Key:
[1] = tested on: tendonitis of the arm; osteoarthritis of the hips and knees; knee injury involving cartilage damage; assay: small preliminary clinical investigation, three persons, oral aqueous solution of compound 105; assay type: in vivo, human; conditions: person, normal doses, patient history
Description: In a small preliminary clinical investigation three persons administered a pharmaceutical composition according to the invention. The composition was an aqueous solution (100 mg/ml) of compound 105, which is the complex of the invention prepared according to example 105.
One patient was […] and had suffered from tendonitis of the arm for eight months. The symptoms were chronic muscle pain and some degree of immobility of the arm.
The composition of the invention was administered orally corresponding to 3000 mg compound 105 twice a day. […] After a further week of treatment the treatment was discontinued.
Another patient was […] and had suffered from osteoarthritis of the hips and knees for ten years. For some periods the patient had been treated with celecoxib, paracetamol and/or codein to control the pain. The main symptoms were pain and immobility of the joints. The composition of the invention was administered orally corresponding to 3000 mg compound 105 twice a day.
The symptoms were pain and immobility of the knee joint. The composition of the invention was administered orally corresponding to 3000 mg compound 105 twice a day. […] During the next two days the symptoms started reappearing.

[2] = tested on: carrageenin-induced paw oedema; assay: carrageenin-induced paw oedema test in the rat; assay type: in vivo; conditions: day 0
Description: The objective of this study is to assess the effect of complexes or compositions of the invention in the carrageenin-induced paw oedema test in the rat, a commonly employed method for screening and evaluation of antiinflammatory drugs. Carrageenin, the phlogistic agent of choice for testing antiinflammatory drugs, is a mucopolysaccharide derived from Irish sea moss, Chondrus. Ibuprofen is used as a positive control.
The test article is the complex of the invention prepared according to example 105 (Compound 105 in the following). Compound 105 and Ibuprofen are obtained from Astion A/S, Denmark.
The test article is dissolved in milli-Q water. 0.9% NaCl solution is used as vehicle.
The study is performed in male SPF Sprague Dawley rats of the stock Mol:SPRD from M & B A/S, Tornbjergvej 40, DK-4623 Lille Skensved, Denmark. At start of the acclimatisation period the rats are in the weight range of 80-100 g.
All doses of Compound 105 are administered intraperitoneally in volumes of 20 ml per kg body weight, once daily on day −2 and −1 to groups 2,3 and 4 only and on day 0 to groups 2-6, 0-5 minutes before injection of carrageenin into the foot on day 0. Ibuprofen and vehicle are administered orally by gavage in volumes of 20 ml/kg body weight on day 0, 0-5 minutes before injection of the carrageenin into the foot.
Carrageenin (from Sigma) is prepared as a 1% suspension in sterile 0.9% NaCl-solution. A volume of 0.1 ml is injected through a 25-gauge needle into the plantar tissue of the right hind paw of the rats within 5 minutes after treatment with the test articles.
Immediately before the dosing and carrageenin injection and three and five hours later the foot volume is measured using a plethysmometer LE 7500 from Letica Scientific Instruments, Spain.

CC(C)Cc1ccc(C(C)C(=O)O)cc1 (centres unmarked) [Ibuprofen]
symptomatic effect of earlier treatment [1]: limited symptomatic effect
inhibition of the paw oedema ([2]; after 5 hours, 50 mg/kg orally by gavage): 77%
inhibition of the paw oedema ([2]; after 5 hours, 150 mg/kg orally by gavage): 97%
inhibition of the paw oedema ([2]; after three hours, 50 mg/kg orally by gavage): 37%
inhibition of the paw oedema ([2]; after three hours, 150 mg/kg orally by gavage): 57%
